Active and inactive are the calls of the source. The calls are words filed in the database; no cut-off is given here.
Assays:
[1] = test system: Staphylococcus aureus; experiment: Antimicrobial activity against Staphylococcus aureus at 25 ug/well after 24 hrs by agar well diffusion method; assay type: functional; settings: read-out: DIZ
[2] = test system: Staphylococcus aureus; experiment: Antimicrobial activity against Staphylococcus aureus at 50 ug/well after 24 hrs by agar well diffusion method; assay type: functional; settings: read-out: DIZ
[3] = test system: Staphylococcus aureus; experiment: Antimicrobial activity against Staphylococcus aureus at 100 ug/well after 24 hrs by agar well diffusion method; assay type: functional; settings: read-out: DIZ
[4] = test system: Escherichia coli; experiment: Antimicrobial activity against Escherichia coli at 25 ug/well after 24 hrs by agar well diffusion method; assay type: functional; settings: read-out: DIZ
[5] = test system: Escherichia coli; experiment: Antimicrobial activity against Escherichia coli at 50 ug/well after 24 hrs by agar well diffusion method; assay type: functional; settings: read-out: DIZ
[6] = test system: Escherichia coli; experiment: Antimicrobial activity against Escherichia coli at 100 ug/well after 24 hrs by agar well diffusion method; assay type: functional; settings: read-out: DIZ
[7] = test system: Pseudomonas aeruginosa; experiment: Antimicrobial activity against Pseudomonas aeruginosa at 25 ug/well after 24 hrs by agar well diffusion method; assay type: functional; settings: read-out: DIZ
[8] = test system: Pseudomonas aeruginosa; experiment: Antimicrobial activity against Pseudomonas aeruginosa at 50 ug/well after 24 hrs by agar well diffusion method; assay type: functional; settings: read-out: DIZ
[9] = test system: Pseudomonas aeruginosa; experiment: Antimicrobial activity against Pseudomonas aeruginosa at 100 ug/well after 24 hrs by agar well diffusion method; assay type: functional; settings: read-out: DIZ
[10] = test system: Aspergillus niger; experiment: Antimicrobial activity against Aspergillus niger at 25 ug/well after 48 hrs by agar well diffusion method; assay type: functional; settings: for zone of inhibition at 25 µg/disc: read-out: DIZ
[11] = test system: Aspergillus niger; experiment: Antimicrobial activity against Aspergillus niger at 50 ug/well after 48 hrs by agar well diffusion method; assay type: functional; settings: read-out: DIZ
[12] = test system: Aspergillus niger; experiment: Antimicrobial activity against Aspergillus niger at 100 ug/well after 48 hrs by agar well diffusion method; assay type: functional; settings: read-out: DIZ
[13] = test system: Penicillium chrysogenum; experiment: Antimicrobial activity against Penicillium chrysogenum at 25 ug/well after 48 hrs by agar well diffusion method; assay type: functional; settings: for zone of inhibition at 25 µg/disc: read-out: DIZ
[14] = test system: Penicillium chrysogenum; experiment: Antimicrobial activity against Penicillium chrysogenum at 50 ug/well after 48 hrs by agar well diffusion method; assay type: functional; settings: read-out: DIZ
[15] = test system: Penicillium chrysogenum; experiment: Antimicrobial activity against Penicillium chrysogenum at 100 ug/well after 48 hrs by agar well diffusion method; assay type: functional; settings: read-out: DIZ
[16] = test system: A549; experiment: Cytotoxicity against human A549 cells assessed as reduction in cell viability up to 200 uM after 20 hrs by MTT assay; assay type: functional, cell-based

Row | SMILES | zone of inhibition at 25 µg/disc [1] [mm] | zone of inhibition at 50 µg/disc [2] [mm] | zone of inhibition at 100 µg/disc [3] [mm] | zone of inhibition at 25 µg/disc [4] [mm] | zone of inhibition at 50 µg/disc [5] [mm] | zone of inhibition at 100 µg/disc [6] [mm] | zone of inhibition at 25 µg/disc [7] [mm] | zone of inhibition at 50 µg/disc [8] [mm] | zone of inhibition at 100 µg/disc [9] [mm] | zone of inhibition at 25 µg/disc [10] [mm] | zone of inhibition at 50 µg/disc [11] [mm] | zone of inhibition at 100 µg/disc [12] [mm] | zone of inhibition at 25 µg/disc [13] [mm] | zone of inhibition at 50 µg/disc [14] [mm] | zone of inhibition at 100 µg/disc [15] [mm] | Activity [16] | diameter of the inhibition zone (DIZ) [10] | diameter of the inhibition zone (DIZ) [13]
1 | Cc1cc(Sc2nc3ccccc3o2)nc(SCc2nc3ccccc3o2)n1 | 9 | 11 | 14 | 10 | 15 | 17 | 10 | 11 | 14 | 8 | 10 | 12 | 9 | 11 | 13 | inactive |  | 
2 | Cc1cc(Nc2nc3ccccc3o2)nc(SCc2nc3ccccc3o2)n1 | 10 | 13 | 17 | 12 | 17 | 20 | 11 | 14 | 17 | 15 | 17 | 19 | 19 | 21 | 24 | inactive |  | 
3 | Cc1cc(Sc2nc3ccccc3[nH]2)nc(SCc2nc3ccccc3[nH]2)n1 | 13 | 16 | 19 | 17 | 20 | 22 | 14 | 17 | 18 | 14 | 15 | 17 | 15 | 17 | 19 | inactive |  | 
4 | Cc1cc(Cl)nc(SCc2nc3ccccc3s2)n1 | 6 | 4 | 16 | 7 | 10 | 14 | 7 | 9 | 10 |  | 8 | 10 | 7 | 9 | 11 | inactive | inactive | 
5 | Cc1cc(Cl)nc(SCc2nc3ccccc3o2)n1 | 5 | 7 | 8 | 6 | 8 | 11 | 5 | 7 | 8 |  | 7 | 9 |  | 8 | 10 | inactive | inactive | inactive
6 | Cc1cc(Cl)nc(SCc2nc3ccccc3[nH]2)n1 | 8 | 10 | 12 | 8 | 13 | 16 | 8 | 10 | 12 | 7 | 9 | 11 | 8 | 10 | 12 | inactive |  | 
